Where a name gives a salt, the structure may show the parent alone.
How the values were obtained:
Carrageenin edema = experiment: Anti-inflammatory activity (Carrageenin edema method); assay type: in vivo, JCl-Wistar female rats; conditions: Rattus norvegicus; rats, oral, 30 min before carrageenin; swelling measured 3 hours later; read-out: Anti-inflammatory activity ED30 (Test (1))
Description: (1) Anti-inflammatory activity (Carrageenin edema method)
A 0.9% saline solution (0.05 ml) containing 1.0% carrageenin is used as phlogistic agent. After 30 minutes JCl-Wistar female rats (180-200 g, body weight) are orally administered a test compound, the phlogistic agent is injected subcutaneously into the plantar of the feet of the rats. The volume of swelling is measured 3 hours later and the anti-edema activity is determined by calculating a ratio (%) of the edematous volume of medicated foot to that of non-medicated foot.

Acetic acid writhing = experiment: Analgesic activity (Acetic acid writhing method); assay type: in vivo, DS male mice; conditions: Mus musculus; mice, oral, 30 min before acetic acid i.p.; writhing counted for 10 minutes; read-out: Analgesic activity ED50 (Test (2))
Description: (2) Analgesic activity (Acetic acid writhing method)
DS male mice (20-23 g, body weight) are treated with an intraperitoneal injection of 0.1 ml/10 g of 0.6% acetic acid 30 minutes after oral administration of a test compound. The number of writhing times for 10 minutes is counted and ED50 is calculated.

Acute toxicity = conditions: mouse, in vivo; mice, oral, mortality at the 72nd hour; read-out: Acute toxicity LD50 (Test (3))
Description: DS mice (20-23 g, male) are orally administered a suspension of test compound with gum arabic. The mortality at the 72nd hour is determined and the LD50 is calculated.

[1] = system: spontaneous locomotion in mice; experiment: Spontaneous locomotor increasing activity; assay type: in vivo; conditions: for ED50: Mus musculus, 50% increase vs control, 95% confidence limits on next line, read-out: ED50 (increasing effect on spontaneous locomotion); for ED50 / % of increase of spontaneous locomotion: oral
Description: (6) Spontaneous locomotor increasing activity
For each group 3 mice were used. Spontaneous locomotor activity was recorded for 15 minutes by a Varimex activity meter from 15 minutes after oral administration of a test compound.

[2] = system: bizarre behaviours of mice; experiment: Hallucinogenic activity (bizarre behaviours); assay type: in vivo; conditions: FIGS. 1 and 2
Description: (8) Hallucinogenic activity
Each of the five mice in each group was confined n a box for 15 minutes to let it adapt to its surroundings. The mouse was kept on a black disc of 74 cm in diameter for 2 minutes from 5 and 15 minutes after administration of a test compound. The number of bizarre behaviours (walking backwards, pivoting and the like) was counted.

tetrabenazine ptosis = experiment: Antidepressant activity: Anti-tetrabenazine ptosis test; assay type: in vivo, mice; conditions: for ED50: Mus musculus, mice, oral, 1 hour before TBZ 50 mg/kg s.c., ptosis 1 hour after TBZ
Description: (§1) (4) Antidepressant activity
(4)-a Anti-tetrabenazine ptosis test
Tetrabenazine (TBZ, 50 mg/kg s.c.) was administered to 5 mice for each group 1 hour after oral treatment with test compounds. […] (4=complete, 3=3/4, 2=1/2, 1=[…] closure of the eyelid, 0=normal).

[3] = system: minimal electroshock seizures with reserpine; experiment: Antidepressant activity: Anti-electroshock test with reserpine; assay type: in vivo, mice; conditions: for ED50: Mus musculus, po, mice, p.o., 0.5 hour before reserpine 2.5 mg/kg s.c., 12 mA, 0.2 sec, 4 hours after reserpine
Description: as §1
(4)-b Anti-electroshock test with reserpine
Seizures were induced by shocking mice (10 per dose) via a pair of corneal electrodes with current intensity of 12 mA and a duration of 0.2 sec 4 hours after administration of reserpine.

oxotremorine hypothermia = experiment: Anti-cholinergic activity (Anti-oxotremorine hypothermia test); assay type: in vivo, mice; conditions: for ED50: Mus musculus, mice, oral, 30 minutes before oxotremorine 0.5 mg/kg s.c.
Description: (5) Anti-cholinergic activity (Anti-oxotremorine hypothermia test)
Before each experiment the rectal temperature of the mice was recorded with a probe thermometer at a constant depth. The mice were divided into groups of 8 in such a way that the mean rectal temperature was the same in each group. Test compounds were administered orally 30 minutes before s.c. administration of oxotremorine (0.5 mg/kg).

[4] = system: spontaneous locomotion in mice; experiment: Spontaneous locomotor decreasing activity; assay type: in vivo; conditions: for ED50: Mus musculus, 50% decrease vs control, 95% confidence limits on a following line, read-out: ED50 (decreasing effect on spontaneous locomotion); for ED50 / % of decrease of spontaneous locomotion: mice, oral
Description: (7) Spontaneous locomotor decreasing activity
For each group 5 mice were used.

[5] = compared with imipramine, Table 2

Compound	ED30 (Carrageenin edema)	ED50 (Acetic acid writhing)	LD50 at 72 h (Acute toxicity)	ED50 (tetrabenazine ptosis)	ED50 [3]	ED50 (oxotremorine hypothermia)	other results
CCn1c2c(c3ccccc31)SCCC2CNC (centres unmarked) [Compound 2, 4-methylaminomethyl-5-ethyl-2,3,4,5-tetrahydrothiopyrano[3,2-b]indole]	9.4 mg/kg	13.3 mg/kg	800 mg/kg	–	–	–	–
CN(C)CC1CCSc2c1n(C)c1ccccc21 (centres unmarked) [Compound 3, 4-Dimethylaminomethyl-5-methyl-2,3,4,5-tetrahydrothiopyrano[3,2-b]indole]	28.3 mg/kg	17.8 mg/kg	400 mg/kg	–	–	–	–
CNCC1CC[S+]([O-])c2c1n(C)c1ccccc21 (centres unmarked) [Compound 4, 4-Methylaminomethyl-5-methyl-2,3,4,5-tetrahydrothiopyrano[3,2-b]indole 1-oxide]	–	49 mg/kg	> 1000 mg/kg	–	–	–	–
CCN(CC)CCN(C)CC1CCSc2c1n(C)c1ccccc21 (centres unmarked) [Compound 6]	13.4 mg/kg	25.3 mg/kg	700 mg/kg	–	–	–	–
Cc1c(N(C)C)c(=O)n(-c2ccccc2)n1C [Aminopyrine, reference compound]	24 mg/kg	58 mg/kg	800 mg/kg	–	–	–	–
C=CCn1c2c(c3ccccc31)SCCC2CNC (centres unmarked) [Compound 5]	17.5 mg/kg	11.3 mg/kg	700 mg/kg	–	–	–	–
CN[C@@H](C)Cc1ccccc1 [Methamphetamine, reference compound]	–	–	–	–	–	–	ED50 ([1]; mice): 0.6 mg/kg; % of increase of spontaneous locomotion ([1]; mice, 0.5 mg/kg): 45.4%; % of increase of spontaneous locomotion ([1]; mice, 1 mg/kg): 62.5%; % of increase of spontaneous locomotion ([1]; mice, 2 mg/kg): 137.8%
CNCC1CCSc2c1n(C)c1ccccc21 (centres unmarked) [Compound 1, 4-Methylaminomethyl-5-methyl-2,3,4,5-tetrahydrothiopyrano[3,2-b]indole]	9.4 mg/kg	6.4 mg/kg	400 mg/kg	24.4 mg/kg	4.3 mg/kg	> 50 mg/kg	hallucinogenic activity [2]: no hallucinogenic activity; anti-depressant activity (in words) (tetrabenazine ptosis; [5]): strong anti-depressant activity; ED50 ([1]; mice): 5.6 mg/kg; duration of spontaneous locomotion increasing activity ([1]; continuous/successive administration): more than 24 hours; effect on spontaneous locomotion (in words) ([1]; mice, Table 3): moderately increases spontaneous locomotion; strength of locomotion increasing activity compared with methamphetamine (in words) ([1]; mice, Table 3): does not have so strong increasing activity as methamphethamine; % of increase of spontaneous locomotion ([1]; mice, 5 mg/kg): 54.3%; % of increase of spontaneous locomotion ([1]; mice, 10 mg/kg): 91.4%; % of increase of spontaneous locomotion ([1]; mice, 20 mg/kg): 123.0%; anti-depressant activity (in words) [3, 5]: strong anti-depressant activity; anti-cholinergic activity (in words) (oxotremorine hypothermia; Table 2): no anti-cholinergic acitivity
CN(C)CCCN1c2ccccc2CCc2ccccc21 [Imipramine]	–	–	–	6 mg/kg	102 mg/kg	4.5 mg/kg	ED50 [4]: 56 mg/kg; % of decrease of spontaneous locomotion ([4]; 25 mg/kg): 19.1%; % of decrease of spontaneous locomotion ([4]; 50 mg/kg): 56.0%; % of decrease of spontaneous locomotion ([4]; 100 mg/kg): 62.9%
CNCC1CCSc2[nH]c3ccccc3c21 (centres unmarked) [Ref., 4methylaminomethyl-2,3,4,9-tetrahydro-thiopyrano [3,2b]indole HCl salt, reference compound]	–	4.2 mg/kg	330 mg/kg	> 50 mg/kg	8.4 mg/kg	> 50 mg/kg	hallucinogenic activity [2]: does; ED50 [4]: 43 mg/kg; effect on spontaneous locomotion (in words) ([4]; Table 4): decreases the activity; % of decrease of spontaneous locomotion ([4]; 25 mg/kg): 7.4%; % of decrease of spontaneous locomotion ([4]; 50 mg/kg): 75.3%; % of decrease of spontaneous locomotion ([4]; 100 mg/kg): 97.2%
